Structure (SMILES) | melting point
CC1(C2CC2)OC(=O)Nc2ccc(-c3cccc(Cl)c3)cc21 (stereo not drawn) [Example 41, 6(3-Chloro-phenyl)-4-cyclopropyl-4-methyl-1,4-dihydro-benzo [d][1,3]oxazin-2-one] | 158 to 159 °C
C#Cc1cccc(-c2ccc3c(c2)C(C)(C)OC(=O)N3)c1 [Example 74, 6-(3-Ethynyl-phenyl)-4,4-dimethyl-1,4dihydro-benzo[d][1,3]-oxazin-2-one] | 171 to 172 °C
CC1(C)OC(=O)Nc2ccc(-c3ccccc3Cl)cc21 [Example 7, 6-(2-Chloro-phenyl)-4,4-dimethyl-1,4-dihydro-benzo[d][1,3]oxazin-2-one] | 181 to 182 °C
CC(C)(C)OC(=O)N1C(=O)OC(C)(C)c2cc(-c3cc(F)cc(C#N)c3)ccc21 [Example 86, 6-(3-Cyano-5fluoro-phenyl)-4,4-dimethyl-2oxo-4H-benzo[d][1,3]oxazine-1-carboxylic acid tert-butyl ester] | 139 to 140 °C
CC#CC1(C2CC2)OC(=O)Nc2ccc(-c3cccc(Cl)c3)cc21 (stereo not drawn) [Example 42, 6-(3-Chloro-phenyl)-4-cyclopropyl-4-propyn-1-yl-1,4-dihydro-benzo [d][1,3]oxazin-2-one] | 178 to 179 °C
CC1(C)OC(=O)Nc2ccc(-c3ccc[nH]3)cc21 [Example 97, 4,4-Dimethyl-6-(1H-pyrrol-2yl)-1,4-dihydro-benzo[d][1,3]-oxazin-2one] | 202 °C (dec.)
CC1(C)OC(=O)Nc2ccc(-c3cc(C(F)(F)F)cc(C(F)(F)F)c3)cc21 [Example 62, 6-(3,5-Bis-trifluoromethyl-phenyl)-4,4-dimethyl-1,4-dihydrobenzo[d][1,3]oxazin-2-one] | 258 to 260 °C
CCc1cc(C#N)sc1-c1ccc2c(c1)C(C)(C)OC(=O)N2 [Example 111, 5(4,4-Dimethyl-2-oxo-1,4-dihydro-2H-benzo[d][1,3]oxazin-6-yl)-4-ethyl-thiophene-2-carbonitrile] | 160 to 162 °C
CC1(C)OC(=O)Nc2ccc(-c3cc(F)cc(F)c3)cc21 [Example 60, 6-(3,5-difluoro-phenyl)-4,4-dimethyl-1,4-dihydrobenzo-[d][1,3]oxazin-2-one] | 218 to 219 °C
CC1(C)OC(=O)Nc2c(F)cc(-c3ccc(F)c(Cl)c3)cc21 [Example 71, 6-(3-Chloro-4-fluoro-phenyl)-8-fluoro-4,4-dimethyl-1,4-dihydrobenzo[d][1,3]-oxazin-2-one] | 246 to 248 °C
CN1C(=O)OC(C)(C)c2cc(-c3cc(F)cc(Br)c3)ccc21 [Example 45, 6-(3-Bromo-5fluorophenyl)-1,4,4-trimethyl-1,4-dihydrobenzo[d][1,3]oxazin-2-one] | 157 to 158 °C
O=C1Nc2ccc(-c3cccc(Cl)c3)cc2C(c2ccccc2)O1 (stereo not drawn) [Example 11, 6-(3-Chloro-phenyl)-4-phenyl-1,4-dihydro-benzo [d][1,3]oxazin-2-one] | 177 to 178 °C
CCC1OC(=O)Nc2ccc(-c3cccc(Cl)c3)cc21 (stereo not drawn) [Example 10, 6-(3-Chloro-phenyl)-4-ethyl-1,4-dihydro-benzo[d][1,3]oxazin-2-one] | 146 to 148 °C
CC1(c2ccccc2)OC(=O)Nc2ccc(-c3cccc(Cl)c3)cc21 (stereo not drawn) [Example 39, 6-(3-Chlorophenyl)-4-methyl-4-phenyl-1,4dihydro-benzo[d][1,3]oxazin-2-one] | 179 to 180 °C
N#Cc1cccc(-c2ccc3c(c2)C2(CCCCC2)OC(=O)N3)c1 [Example 106, 3-(1,2-Dihydro-2-oxospiro[4H-3,1-benzoxazine-4,1-cyclohexan]-6-yl)-benzonitrile] | 245 to 247 °C
CC1(C)OC(=O)Nc2ccc(-c3cccc(C#C[Si](C)(C)C)c3)cc21 | 240 to 242 °C
CC1(C)OC(=O)Nc2ccc(-c3cc(Br)cc(OC(F)(F)F)c3)cc21 [Example 57, 6-(3-Bromo-5-trifluoromethoxy-Phenyl)-4,4-dimethyl-1,4-dihydrobenzo[d][1,3]-oxazin-2-one] | 214 to 216 °C
CC1(C)OC(=O)Nc2ccc(-c3cc(Cl)cc(C#N)c3)cc21 [Example 78, 3-Chloro-5(4,4-dimethyl-2-oxo-1,4-dihydro-2H-benzo[d][1,3]oxazin-6-yl)-benzonitrile] | 256 to 257 °C
CC1(C)OC(=O)Nc2c(F)cc(-c3csc(C#N)c3)cc21 [Example 88, 4-(8-Fluoro-4,4-dimethyl-2-oxo-1,4-dihydro-2H-benzo[d][1,3]oxazin-6-yl)-thiophene-2-carbonitrile] | 250 to 251 °C
CC1(C)OC(=O)Nc2ccc(-c3cc(C#N)cc(OC(F)(F)F)c3)cc21 [Example 59, 3-(4,4-Dimethyl-2-oxo-1,4-dihydro-2H-benzo[d][1,3]oxazin-6-yl)-5-trifluoromethoxy-benzonitrile] | 227 to 228 °C
COc1cc(C#N)cc(-c2ccc3c(c2)C(C)(C)OC(=O)N3)c1 [Example 63, 3-(4,4-Dimethyl-2-oxo-1,4-dihydro-2H-benzo[d][1,3]oxazin-6-yl)-5-methoxy-benzonitrile] | 254 to 255 °C
CCOC(OCC)N1C(=O)OC(C)(C)c2cc(-c3cc(F)cc(C#N)c3)ccc21 [Example 66, 3(1-Diethoxymethyl-4,4-dimethyl-2-oxo-1,4-dihydro-2H-benzo[d][1,3]oxazin-6-yl)-5-fluoro-benzonitrile] | 123 to 124 °C
CC1(C)OC(=O)Nc2ccc(-c3cccc(-c4nccs4)c3)cc21 [Example 81, 4,4-Dimethyl-6(3-thiazol-2-yl-phenyl)-1,4-dihydro-benzo[d][1,3]oxazin-2-one] | 223 to 224 °C
COc1cccc(-c2ccc3c(c2)C(C)(C)OC(=O)N3)c1 [Example 6, 6-(3-Methoxy-phenyl)-4,4dimethyl-1,4-dihydro-benzo[d][1,3]-oxazin-2-one] | 164 to 165 °C
CC1(C)OC(=O)Nc2c(F)cc(-c3cc(F)cc(C#N)c3)cc21 [Example 89, 3-Fluoro-5-(8-fluoro-4,4dimethyl-2-oxo-1,4-dihydro-2H-benzo[d][1,3]oxazin-6-yl)-benzonitrile] | 256 to 257 °C
CC1(C)OC(=O)Nc2ccc(-c3cc([N+](=O)[O-])cc([N+](=O)[O-])c3)cc21 | 297 to 298 °C
N#Cc1cc(-c2ccc3c(c2)C(C2CC2)(C2CC2)OC(=O)N3)cs1 [Example 53, 4-(4,4-Dicyclopropyl-2-oxo-1,4-dihydro-2H-benzo[d][1,3]oxazin-6yl)-thiophene-2-carbonitrile] | 244 to 245 °C
CC#CC1(C#CC)OC(=O)Nc2ccc(-c3cccc(Cl)c3)cc21 [Example 44, 6(3-Chloro-phenyl)-4,4dipropyn-1-yl-1,4dihydrobenzo[d][1,3]oxazin-2-one] | 151 °C (dec.)

Results, then the molecule that gave them:

melting point | Structure (SMILES)
194 to 195 °C | CC1(C)OC(=O)Nc2c(Br)cc(-c3ccc(F)c(Cl)c3)cc21 [Example 123, 8-Bromo-6-(3-chloro-4-fluorophenyl)-4,4-dimethyl-1,4-dihydro-2H-3,1-benzoxazin-2-one]
257 to 259 °C | CC1(C)OC(=O)Nc2ccc(-c3ccc(N)nc3)cc21 [Example 142, 6-(6-Amino-pyridin-3-yl)-4,4-dimethyl-1,4-dihydro-benzo[d][1,3]oxazine-2-one]
235 to 236 °C | CC1(C)OC(=O)Nc2c(Br)cc(-c3ccc(F)c(C#N)c3)cc21 [Example 125, 5-(8-Bromo-4,4-dimethyl-2-oxo-1,4-dihydro-2H-3,1-benzoxazin-6-yl)-2-fluorobenzonitrile]
245 to 247 °C | CC(=O)Nc1ccc(-c2ccc3c(c2)C(C)(C)OC(=O)N3)cc1F [Example 137, N-[4-(4,4-Dimethyl-2-oxo-1,4-dihydro-2H-3,1-benzoxazin-6-yl)-2fluoro-phenyl]-acetamide]
257 to 260 °C | CC1(C)OC(=O)Nc2ccc(-c3ccc(C#N)o3)cc21 [Example 119, 5-(4,4Dimethyl-2-oxo-1,4-dihydro-2H-benzo[d][1,3]oxazin-6-yl)-furan-2-carbonitrile]
154 to 155 °C | CCN1C(=O)OC(C)(C)c2cc(-c3cc(F)cc(C#N)c3)ccc21 [Example 131, 3-(1-Ethyl-4,4-dimethyl-2-oxo-1,4-dihydro-2H-benzo[d][1,3]oxazin-6-yl)-5-fluoro-benzonitrile]
192 to 198 °C | CC1(C)OC(=O)Nc2ccc(-c3cccc(C#N)c3F)cc21 [Example 120, 3-(4,4-Dimethyl-2-oxo-1,4-dihydro-2H-benzo[d][1,3]oxazin-6-yl)-2fluoro-benzonitrile]
188 to 190 °C | CC1(C)OC(=O)Nc2ccc(-c3cccc(CC#N)c3)cc21 [Example 118, 3-(4,4Dimethyl-2-oxo-1,4-dihydro-2H-benzo[d][1,3]-oxazin-6-yl)phenylacetonitrile]
160 to 161 °C | CC1OC(=O)Nc2ccc(-c3cccc(F)c3)cc21 (stereo not drawn) [Example 127, 6-(3-Fluorophenyl)-4-methyl-1,4-dihydro-2H-3,1-benzoxazin-2-one]
176 to 179 °C | CC1(C)OC(=O)Nc2ccc(-c3ccccc3CC#N)cc21 [Example 136, 2-(4,4-Dimethyl 2-oxo-1,4-dihydro-2H-benzo[d][1,3]-oxazin-6-yl)phenylacetonitrile]
145 to 146 °C | COc1cccc(-c2ccc3c(c2)C2(CCC2)OC(=O)N3)c1 [Example 122, 6-(3-Methoxyphenyl)spiro[4H-3,1-benzoxazine-4,1-cyclobutan]-2(1H)-one]
166 to 167 °C | CC1(C)OC(=O)Nc2ccc(-c3cccc(F)c3F)cc21 [Example 130, 6-(2,3-Difluoro-phenyl)-4,4dimethyl-1,4-dihydro-benzo[d][1,3]oxazin-2-one]
160 to 162 °C | CCCc1cc(C#N)sc1-c1ccc2c(c1)C(C)(C)OC(=O)N2 [Example 112, 5-(4,4-Dimethyl-2-oxo-1,4-dihydro-2H-benzo[d][1,3]oxazin-6-yl)4-n-propyl-thiophene-2-carbonitrile]
252 to 253 °C | COc1cc(-c2cc(F)cc(C#N)c2)cc2c1NC(=O)OC2(C)C [Example 128, 3-(4,4-Dimethyl-8-methoxy-2-oxo-1,4-dihydro-2H-3,1-benzoxazin-6-yl)-5-fluorobenzonitrile]
